Series [1] in a line: Plasma protein and brain tissue binding, rapid equilibrium dialysis. The series is classed as in vitro ADME, mouse. An excerpt: The rapid equilibrium dialysis assay used to determine free fraction of α5-PAM in mouse plasma and brain tissue was the same as in [Obradovic et al. (2014)].
Series [2] deals with mice exposed to unpredictable chronic mild stress (UCMS). The series is described as follows: Open field test after UCMS. The class given is in vivo, C57BL/6J mice.
In series [3] the test system is Gabra5. The series can be described thus: Gabra5 transcript expression by qPCR in prelimbic cortex and hippocampus. The series is classed as in vivo, C57BL/6J mice. As for the experimental part:
Twenty-four hours after the final behavioral test, mice were injected with either an acute dose of α5-PAM or vehicle 30 min prior to rapid perfusion (2 ml 4%PFA). Brains were rapidly dissected and flash frozen on dry ice. 160 μm thick coronal sections were obtained using a cryostat. The prelimbic cortex and dorsal hippocampus were dissected with a 1 mm diameter micropunch and tissue samples were then frozen at -80°C. Total RNA was extracted with an RNAeasy FFPE kit (Qiagen, Germantown, MD, USA) and tested for purity on a NanoDrop Spectrophotometer (260/280 ≥ 1.9). RNA concentration and integrity (RIN > 7) were then assessed using the Agilent RNA6000 Pico-Kit and Agilent 2100 Bioanalyzer (Agilent Technologies, Santa Clara, CA, USA).
Approximately 90 ng of total RNA was used to generate cDNA via the qScript^TM cDNA Supermix synthesis kit (Quanta Biosciences, Gaithersburg, MD, USA). Real-time quantitative polymerase chain (qPCR) reactions were carried out using SYBR green fluorescence signal (Invitrogen, Carlsbad, CA, USA) and an Opticon Monitor DNA Engine (Bio-Rad, Berkeley, CA, USA). Gene of interest was the α5-subunit of the GABAA receptor (Gabra5). Samples were run in triplicate and ΔCt values were calculated by comparing the Ct values of Gabra5 to the geometric mean of two reference genes, β-Actin and glyceraldehyde 3-phosphate dehydrogenase (Gapdh). Arbitrary signal intensity was calculated as 2^-ΔCt∗10,000.
(Quantitative PCR measures a nucleic acid by following its amplification.)

Series [4] in a line: Pharmacokinetic study, plasma and brain levels after single i.p. injection. The class given is in vivo, C57BL/6J mice. As to conditions: 30 mg/kg i.p.; for Brain AUC0-3: mean ± SEM. How it is done: Adult (8 weeks old) male and female C57BL/6J (Military Farm, Belgrade, Serbia) were divided into six groups corresponding to pre-determined time intervals following a single 30 mg/kg α5-PAM injection (5, 10, 20, 40, 60, and 180 min). At 30 mg/kg α5-PAM administration has high affinity for the α5-subunit and lower affinity for GABAA-receptors containing other subunits ([Savic et al., 2010]). As the goal of this study was to selectively evaluate positive modulation of α5-containing GABAA receptors to stress-induced behaviors, we chose this dose to conduct preliminary pharmacokinetic analyses. Blood samples were collected in heparinized syringes via cardiac puncture of mice anesthetized with ketamine (100 mg/kg i.p.; 10% Ketamidor, Richter Pharma Ag, Wels, Austria), and centrifuged at 2500 rpm for 10 min to obtain plasma. Thereafter, mice were decapitated and brains were weighed, homogenized in 2 mL of methanol and centrifuged at 6000 rpm for 20 min. To determine the concentration of α5-PAM in plasma and supernatants of brain tissue homogenates, α5-PAM was extracted by solid phase extraction using Oasis HLB cartridges (Waters Corporation, Milford, MA, USA). The procedure of sample preparation and determination of α5-PAM by ultra performance liquid chromatography–tandem mass spectrometry (UPLC–MS/MS) with Thermo Scientific Accela 600 UPLC system connected to a Thermo Scientific TSQ Quantum Access MAX triple quadrupole mass spectrometer (Thermo Fisher Scientific, San Jose, CA, USA) equipped with electrospray ionization (ESI) source, is described in [Obradovic et al. (2014)].

For series [5], the system named is mice exposed to unpredictable chronic mild stress (UCMS). The series can be described thus: Composite emotionality Z-score across EPM, OFT, NSF, cookie test. The class given is in vivo, C57BL/6J mice. How it is done: To assess the consistency of effects of stress and drug treatment on overall stress-induced behavior, we calculated behavioral z-scores using the formula below. These normalized scores integrate measures of behavioral dimensions (e.g., emotionality) over time and tests, yielding a combined measure of the UCMS-induced behavioral syndrome ([Guilloux et al., 2011]).
Briefly, for each behavioral measure a Z-score was calculated for an individual animal indicating how many standard deviations (σ) a given observation (X) is from the mean of the control group (μ). These scores were averaged within test such that each test had the same weight, and then averaged across all four tests (EPM, OFT, NSF, cookie test) to obtain a composite emotionality Z-score for each mouse. In short, random or opposite behavior across tests yield null z-scores, whereas significant and/or trend-like behaviors across tests and consistently in the same directions yield high z-scores.

[6] abbreviates: female UCMS mice, chronic treatment, vs UCMS-vehicle, second cohort (Figure 3).

Entries after “also recorded” stand apart in the source; their conditions may differ.

`C#Cc1ccc2c(c1)C(c1ccccc1F)=N[C@H](C)c1c(C(=O)OCC)ncn1-2` [α5-PAM]: the “free fraction, brain tissue” value in series [1] (mouse brain tissue) is given as 2.73%. Further, the “free fraction, plasma” value in series [1] (mouse plasma) turned out to be 7.44%. Further, the “OFT percentage of total distance traveled in the center” value in series [2] (setting [6]) is listed as “increases; also recorded: higher percentage of their total distance traveled”. Further, the OFT behavior entry in series [2] (female and male UCMS mice, acute or chronic 30 mg/kg i.p., first cohort (Figure 2)) is listed as “did not detect any significant main effects; also recorded: No effect”. For the same compound, in series [2] (male UCMS mice, 37.5 mg/kg acute or chronic (Figure 4B), 37.5 mg/kg), the “OFT, stress-induced behavior” value was “No change; also recorded: failed to reduce”. Besides, the “OFT, UCMS-induced behavioral phenotype” value in series [2] (male mice, UCMS plus single housing, chronic treatment (Figure 4A)) is “did not alter; also recorded: No significant effect”. The “Gabra5 (α5) transcript expression, prelimbic cortex” value is “significantly increased; also recorded: increases” in series [3] (female UCMS mice, acute treatment) and “No effect” in series [3] (male or female UCMS mice, chronic treatment). The “Gabra5 (α5-subunit) transcript expression, hippocampus” value in series [3] (female UCMS mice, chronic treatment) is given as “increases”. Further, the Gabra5 gene expression entry in series [3] (male UCMS mice, acute or chronic treatment, prelimbic cortex and hippocampus) was “No change”. Besides, in series [4], the “Brain AUC0-3, females relative to males” value is reported as “approximately 1.25 X”. The “Brain AUC0-3” value amounted to 4910.13 ± 1032.02 ng·h/g in series [4] (female mice) and 3944.49 ± 560.30 ng·h/g in series [4] (male mice). The Z-emotionality score result in series [5] (female UCMS mice, acute 30 mg/kg i.p., first cohort (Figure 2)) was “Significant anti-stress effect”; in series [5] (female UCMS mice, acute treatment, vs UCMS-vehicle, second cohort (Figure 3)), “normalized; also recorded: significantly decreased”; in series [5] (female UCMS mice, chronic 30 mg/kg i.p., first cohort (Figure 2)), “Significant anti-stress effect”; in series [5] (setting [6]), “normalized; also recorded: significantly decreased”; in series [5] (male UCMS mice, acute or chronic 30 mg/kg i.p., first cohort (Figure 2)) it was “no effect”. Also, the “Z-emotionality score compared to non-stressed vehicle group” value in series [5] (female UCMS mice, acute and chronic treatment groups, second cohort (Figure 3)) was “not statistically different”. Besides, the “Composite emotionality Z-score” value in series [5] (male UCMS mice, 37.5 mg/kg acute or chronic (Figure 4D), 37.5 mg/kg) is “No effect; also recorded: lack of anti-stress activity”. The “Summary emotionality Z-score” value in series [5] (male mice, UCMS plus single housing, chronic treatment (Figure 4C)) was “lack of effect; also recorded: does not remediate”.

Values taken from publication PMC5118774 (Frontiers in Pharmacology, 2016).
